Results on five compounds are retold here after patent US20240327463A1, “ANTIBACTERIAL PRODUCTS” (priority 2017, published 2024).

For data set [1], the system named is human lung epithelial cell line A549. Description: Cytotoxicity in A549 cells (MTS assay, high content imaging). The note with it: A549; 24 h. The protocol:
(§1) It was important to evaluate the cytotoxicity of Compound 26 on mammalian cells prior to in vivo studies. The cytotoxicity of Compound 26 in human lung epithelial cell line A549 and primary dermal fibroblasts (hDFs) was determined. Both of these cell culture models are already established for evaluation of cytotoxicity of antimicrobial peptides.
(§2) The stock solution of Compound 26 (500 μg/ml) was prepared fresh by directly dissolving Compound 26 in cell culture medium and used. Cells were treated with dimethyl sulfoxide (DMSO, 0.1% v/v) or nocodazole (5 μg/ml dissolved in DMSO) as controls. At the end of the treatment period, metabolic activities of cells were quantified by MTS-based cell viability assay. […] After 24 h treatment with Compound 26, A549 cells (c) and hDFs (d) were fixed, fluorescently stained with rhodamine-phalloidin (red), alexa fluor 488 conjugated anti-α-tubulin (green) and Hoechst 33342 (blue) and imaged using IN Cell Analyzer 2200 automated microscope. Representative images of cells treated with Compound 26 (62.5 μg/ml for 24 h) or nocodazole (10 μg/ml, toxicity control) are shown in FIG. 2 c,d.

Data set [2] has as its system human primary dermal fibroblasts (hDFs). Description: Cytotoxicity in primary dermal fibroblasts (MTS assay, high content imaging). The note with it: hDFs; 24 h. On the procedure: as §1, §2
Background: Tetrazolium assays rely on reduction of a dye to a coloured formazan, in cell work by metabolically active cells.

The subject of the next data set is MRSA ATCC 33591. To be noted: for MIC (MRSA*): ATCC 33591. Put shortly: (§3)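 Twofold broth microdilution in Mueller Hinton from a 512 μg/ml starting well, peptides dissolved in DMSO. Plates incubated 24 hours at 37° C, in triplicate. MIC read as lowest concentration without visible growth.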
For the next data set, the system named is Enterococcus. The method in brief:
as §3

The next data set has as its system MRSA 1003. The format is cell-based, Staphylococcus aureus. The method in brief:
(§4)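 Serial dilutions prepared in Mueller Hinton through well 11, organisms grown in the same broth and incubated at 37 °C, triplicate runs.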

The next data set relates to VRE 1004. The format is cell-based, Enterococcus faecalis. Put shortly:
as §4

The next data set relates to VRE 1001. The format is cell-based, Enterococcus faecalis. The method in brief: as §4
The test system of a further data set is VRE 1002. Format: cell-based, Enterococcus faecalis. The method in brief: as §4
For another data set, the system named is VRE 1008. The format is cell-based, Enterococcus faecalis. Put shortly:
as §4

The subject of another data set is MRSA ATCC 700699. Description: microbe, parasite or virus in culture. To be noted: ATCC 700699. The method in brief:
as §3

A further data set relates to MRSA DM21455 (eye). Description: microbe, parasite or virus in culture. To be noted: DM21455 (eye). Put shortly: as §3
The next data set has as its system MRSA DR 42412 (sputum). Description: microbe, parasite or virus in culture. To be noted: DR 42412 (sputum). The method in brief:
as §3

The test system of data set [3] is Staphylococcus aureus ATCC 29213. Description: microbe, parasite or virus in culture. The method in brief: as §3
The subject of another data set is VRE ATCC 700802. Description: microbe, parasite or virus in culture. The note with it: ATCC 700802. Put shortly:
as §3

For the next data set, the system named is VRE ATCC 29212. Description: microbe, parasite or virus in culture. To be noted: ATCC 29212. The method in brief:
as §3

The subject of data set [4] is Staphylococcus saprophyticus ATCC 49453. Format: cell-based. To be noted: ATCC 49453. The method in brief:
as §4

Data set [5] relates to Staphylococcus saprophyticus ATCC BAA 750. Format: cell-based. To be noted: ATCC BAA 750. Put shortly: as §4
In data set [6] the test system is Bacillus Cereus ATCC 11788. Format: cell-based. The method in brief:
as §4

The subject of a further data set is SA4299. The format is cell-based. The note with it: Table 11. Put shortly:
as §4

Data set [7] deals with Bacillus Subtilis ATCC 6633. Format: cell-based. Put shortly:
as §4

A further data set deals with SE12228. The format is cell-based. Put shortly:
as §4

Data set [8] deals with Staphylococcus saprophyticus ATCC 49907. Format: cell-based. To be noted: ATCC 49907. The method in brief:
as §4

Data set [9] concerns Staphylococcus saprophyticus ATCC 15305. Format: cell-based. To be noted: ATCC 15305. Put shortly: as §4
The test system of a further data set is M. smegmatis ATCC 607. Description: microbe, parasite or virus in culture. The note with it: ATCC 607. Put shortly: as §3
The next data set relates to Mycobacterium smegmatis. The format is cell-based. Put shortly: as §4
Data set [10] deals with Staphylococcus aureus ATCC 29213. To be noted: reported for a teixobactin analogue; cited from earlier work.

In brackets after ≈: the same amount, converted by molar mass. Bridge positions count the residues as written; N and C are the ends. Square brackets hold non-standard residues; d marks the D form. Peptide text beside a SMILES is read from it. * marks the point of attachment. dNMeF = CN[C@H](Cc1ccccc1)C(=O)O; X1 = NCC(CN)OC(=O)*

Regarding `COC(=O)Nc1nc2ccc(C(=O)c3cccs3)cc2[nH]1` [nocodazole, reference compound], the “cell morphology, high content images” value in [1] and in data set [2] was “substantial loss of adhered cells” throughout.
As for `CC[C@@H](C)[C@@H](NC(=O)[C@@H](CCCNC(=N)N)NC(=O)[C@H](CCCNC(=N)N)NC(=O)[C@@H](NC(=O)[C@@H](Cc1ccccc1)NC)[C@@H](C)CC)C(=O)N[C@H](C(=O)N[C@@H](CO)C(=O)N[C@H]1C(=O)N[C@@H](CCCNC(=N)N)C(=O)N[C@@H](CC(C)C)C(=O)N[C@@H]([C@@H](C)CC)C(=O)O[C@H]1C)[C@@H](C)CC` [Compound 31, Arg3-D-Arg4-Arg9-Leu10-teixobactin] (H-[dNMeF]IR[dR][dI]IS[dT]RLI; ester 8-C), the “MIC against MRSA ATCC 33591” value in the data set on MRSA ATCC 33591 (MRSA ATCC 33591) turned out to be 1 µg/mL (≈ 0.723 µM). For the same compound, the “MIC in Enterococcus” value in the data set with Enterococcus lay within 2 to 8 µg/mL. The MIC with MRSA 1003 came out at 2 µg/mL (≈ 1.45 µM); against VRE 1004 it was 4 µg/mL (≈ 2.89 µM); against VRE 1001, 2 µg/mL (≈ 1.45 µM); with VRE 1002, 8 µg/mL (≈ 5.78 µM); against VRE 1008, 8 µg/mL (≈ 5.78 µM); with MRSA ATCC 700699, 2 µg/mL (≈ 1.45 µM). Moreover, the MIC in the data set on MRSA DM21455 (eye) is 2 µg/mL (≈ 1.45 µM); with MRSA DR 42412 (sputum), 2 µg/mL (≈ 1.45 µM); against VRE ATCC 700802 it was 4 µg/mL (≈ 2.89 µM); with VRE ATCC 29212 it was 4 µg/mL (≈ 2.89 µM); in data set [4] it was less than 0.0625 µg/mL; in [5], less than 0.0625 µg/mL. Besides, the MIC in data set [6] is 1 µg/mL (≈ 0.723 µM); in the data set with SA4299, 1 µg/mL (≈ 0.723 µM); in data set [7], less than 0.0625 µg/mL; with SE12228 it was less than 0.0625 µg/mL; in [8], less than 0.0625 µg/mL; in data set [9], 0.25 µg/mL (≈ 0.181 µM). Further, the “MIC against Staphylococcus aureus ATCC 29213” value in [3] amounted to 1 µg/mL (≈ 0.723 µM).
For the compound `CC[C@@H](C)[C@@H](NC(=O)[C@@H](CCC(N)=O)NC(=O)[C@H](CO)NC(=O)[C@@H](NC(=O)[C@@H](Cc1ccccc1)NC)[C@@H](C)CC)C(=O)N[C@H](C(=O)N[C@@H](CO)C(=O)N[C@H]1C(=O)N[C@@H](C)C(=O)N[C@@H](C)C(=O)N[C@@H]([C@@H](C)CC)C(=O)O[C@H]1C)[C@@H](C)CC` [Compound 14], in the data set on MRSA ATCC 33591, the “MIC (MRSA*)” value lay in the range of 1 to 2 µg/mL. The MBC turned out to be 16 µg/mL (≈ 13.8 µM) against MRSA ATCC 700699, 2 µg/mL (≈ 1.73 µM) against MRSA DM21455 (eye), 4 µg/mL (≈ 3.45 µM) with MRSA DR 42412 (sputum) and 2 µg/mL (≈ 1.73 µM) in [3] (ATCC 29213). In addition, the MIC in the data set with MRSA ATCC 700699 is 4 µg/mL (≈ 3.45 µM); against MRSA DM21455 (eye) it was 1 µg/mL (≈ 0.863 µM); against MRSA DR 42412 (sputum) it was 1 µg/mL (≈ 0.863 µM); in data set [3] (ATCC 29213), 1 µg/mL (≈ 0.863 µM); in the data set with M. smegmatis ATCC 607, 1 to 2 µg/mL; in the data set on VRE ATCC 700802, 4 µg/mL (≈ 3.45 µM). Also, the MIC against VRE ATCC 29212 was 4 µg/mL (≈ 3.45 µM). Also, the “MIC (μg/mL) Mycobacterium smegmatis” value in the data set with Mycobacterium smegmatis came out at 2 µg/mL (≈ 1.73 µM).
Turning to `CC[C@@H](C)[C@@H](NC(=O)[C@@H](CCC(N)=O)NC(=O)[C@H](CO)NC(=O)[C@@H](NC(=O)[C@@H](Cc1ccccc1)NC)[C@@H](C)CC)C(=O)N[C@H](C(=O)N[C@@H](CO)C(=O)N[C@H]1C(=O)N[C@@H](C)C(=O)N[C@@H](CCCCNC(=O)OC(CN)CN)C(=O)N[C@@H]([C@@H](C)CC)C(=O)O[C@H]1C)[C@@H](C)CC` [Compound 21, Diamino10-Teixobactin] (H-[dNMeF]IS[dQ][dI]IS[dT]AK(X1)I; ester 8-C), the “MIC (MRSA*)” value against MRSA ATCC 33591 is 0.25 µg/mL (≈ 0.188 µM). The “MIC (μg/mL) Mycobacterium smegmatis” value against Mycobacterium smegmatis is 0.5 µg/mL (≈ 0.375 µM).
Consider Lys3-D-Lys4-Lys10-teixobactin, for which the “reported MIC against Staphylococcus aureus ATCC 29213” value in data set [10] is 8 µg/mL.
